Results taken from US9539298B2, “Lissencephaly therapeutic agent” (OSAKA CITY UNIVERSITY, priority 2010, dated 2017).

How the values were obtained:
[1] = test system: Lis1+/− mouse embryonic fibroblasts (MEF); assay: Change in LIS1 protein amount in cells by SNJ-1945 (western blotting); assay type: cell-based; settings: Lis1+/− MEF treated with SNJ-1945, western blotting, FIG. 1
Experimental: Fibroblasts (MEF; mouse embryonic fibroblasts) were established from five each of LIS1 gene hetero-deficient and wild-type mice (12.5- to 14.5-day-old embryos). The fibroblasts were established as follows. Pregnant mice were killed by cervical fracture, and the mouse embryos were immediately isolated under a germ-free condition. After the heads and visceral tissues were removed with tweezers, the mouse embryos were dissected with scissors. 10 ml of Trypsin-EDTA (Gibco, 25200) was added to each dissected tissue fraction, and the resulting liquid was placed in a 50 ml plastic tube (Nunc, 373687) to be subjected to 30-minute incubation at 37° C. After incubation, 10 ml of fetal bovine serum (Equitech-Bio, Inc., SFBM30-1798) was added, followed by pipetting with a 10 ml pipette (Nunc, 159633), thereby isolating the cells. After the cells were allowed to stand at room temperature for 5 minutes, the supernatant was collected. […]
Using the cells, the influence of SNJ-1945 on the LIS protein amount in each cell was analyzed as follows. […] After determination of protein quantity, 10 μg of protein was placed on each lane. After isolation using a 10% acrylic gel (SDS-PAGE), the protein was transferred to an Immobilon membrane (Millipore, IPVH00010), and LIS and DIC (dynein intermediate chain: reflecting the dynein amount) were detected. […] was detected to be used as a protein amount reference. […]

[2] = test system: LIS1 heterozygous mice (Lis1+/−) embryos; assay: Apoptosis in mouse embryo brains (TUNEL staining); assay type: in vivo; settings: 100 μg/g IP to pregnant mice on alternate days from E9.5, read at E15.5, FIG. 9
Experimental: A neo(−)129S-Pafah1b1^tm2Awb/J homozygous male mouse lacking neo gene was mated with five homozygous EII-Cre transgenic female mice (FVB/N-Tg (EIIa-cre) C5379Lmgd/J, The Jackson Laboratory) by raising them in the same mouse cage. In total, six sets of mouse cages were prepared for the mating experiment. Plug check (confirmation of mating) was carried out every morning between 7 and 10 am, thereby determining the gestation cycle. SNJ-1945 was dissolved in dimethyl sulfoxide (DMSO) at a concentration of 100 mg/ml, and intraperitoneally injected to the pregnant mice carrying LIS1 heterozygous mice (Lis1^+/−) and the pregnant mice carrying control mice (normal mouse embryos), so that the administration amount became 100 μg per gram of body weight on alternate days from Day 9.5 of the embryonic period (E9.5). On Day 15.5 of the embryonic period (E15.5), the pregnant mice were killed by cervical fracture, and the mouse embryos were removed and immobilized for 24 hours by 4% paraformaldehyde (Wako: 162-16065). After substitution with PBS, paraffin embedding was performed by a standard method. The tissue block was cut into 5 μm pieces. Each piece was adhered to an APS-coated slide glass. After deparaffinization, 20 μg/ml proteinase K/PBS treatment was conducted for 15 minutes at room temperature, and 3% H2O2/PBS treatment was performed for ten minutes at room temperature. […]

## COCCOCCOC(=O)N[C@@H](CC(C)C)C(=O)N[C@@H](Cc1ccccc1)C(=O)C(=O)NC1CC1 [compound 17, ((1S)-1-((((1S)-1-Benzyl-2,3-dioxo-3-(cyclopropylamino)propyl)amino)carbonyl)-3-methylbutyl)carbamic acid 5-methoxy-3-oxapentyl ester]
[1]
  LIS protein amount in cells: the decrease in the LIS protein amount was recovered
[2]
  apoptosis in embryo brain (TUNEL): significantly reduced
